Where two headings read alike, the source gives them in different places.
Legend:
Type in all cases: cell-based
Conditions in all cases: geometric mean of at least 2 assay runs, † = single assay run
[1] = test system: HEK293 cells overexpressing APOL1 G2; assay: APOL1 G2 HEK293 cell rescue assay (reversal of cell death caused by overexpression of APOL1)
Outline: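 EC50 is the half-maximal effective concentration for reversing cell death driven by APOL1 G2 overexpression in HEK293 cells. Reported as geometric mean of at least 2 runs on separate days, each run averaging duplicate wells per plate; some values from a single run.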

[2] = test system: Trypanosoma brucei Lister 427 VSG221 with APOL1 G0 recombinant protein; assay: APOL1 G0 trypanosome cell rescue assay (Example B5)
Outline: (§1)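 Mature APOL1 (residues 28-398, E. coli-expressed, His-tag removed by TEV) was added as a 2 μg/mL solution to T. brucei Lister 427 VSG221 in modified HMI-9 medium at 250 cells/well, with duplicate 11-point 2-fold compound dilutions (0.4% DMSO). After 20 h at 37° C, 5% CO2, viability was read by CellTiter-Glo luminescence.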

[3] = test system: Trypanosoma brucei Lister 427 VSG221 with APOL1 G1 recombinant protein; assay: APOL1 G1 trypanosome cell rescue assay (Example B5)
Outline: as §1

[4] = test system: Trypanosoma brucei Lister 427 VSG221 with APOL1 G2 recombinant protein; assay: APOL1 G2 trypanosome cell rescue assay (Example B5)
Outline: as §1

[5] = Homo sapiens, HEK293, HEK293 overexpressing APOL1 G2
[6] = Trypanosoma brucei, 20 h, read-out: APOL1 G0 Trypanosome Rescue EC50, Trypanosoma brucei Lister 427 VSG221 with APOL1 G0 recombinant protein, 20 hours, CellTiter-Glo
[7] = Trypanosoma brucei, 20 h, read-out: APOL1 G1 Trypanosome Rescue EC50, Trypanosoma brucei Lister 427 VSG221 with APOL1 G1 recombinant protein, 20 hours, CellTiter-Glo
[8] = Trypanosoma brucei, 20 h, read-out: APOL1 G2 Trypanosome Rescue EC50, Trypanosoma brucei Lister 427 VSG221 with APOL1 G2 recombinant protein, 20 hours, CellTiter-Glo
[9] = read-out: APOL1 G0 Trypanosome Rescue EC50, Trypanosoma brucei Lister 427 VSG221 with APOL1 G0 recombinant protein, 20 hours, CellTiter-Glo
[10] = read-out: APOL1 G1 Trypanosome Rescue EC50, Trypanosoma brucei Lister 427 VSG221 with APOL1 G1 recombinant protein, 20 hours, CellTiter-Glo
[11] = read-out: APOL1 G2 Trypanosome Rescue EC50, Trypanosoma brucei Lister 427 VSG221 with APOL1 G2 recombinant protein, 20 hours, CellTiter-Glo

| Compound | EC50 [1, 5] [nM] | EC50 [2, 6] [nM] | EC50 [3, 7] [nM] | EC50 [4, 8] [nM] | EC50 ([1]; HEK293 overexpressing APOL1 G2) [nM] | EC50 [2, 9] [nM] | EC50 [3, 10] [nM] | EC50 [4, 11] [nM] |
| --- | --- | --- | --- | --- | --- | --- | --- | --- |
| O=C1Nc2ccc(Cl)cc2C12CCN(CCOc1ccc3c(cnn3[C@H]3C[C@H](O)C3)c1)CC2 [Compound 86, 5-chloro-1′-[2-({1-[(trans)-3-hydroxycyclobutyl]-1H-indazol-5-yl}oxy)ethyl]-1,2-dihydrospiro[indole-3,4′-piperidin]-2-one] | 46.5 | 96.4 | 137 | 38.4 |  |  |  |  |
| O=C1Nc2ccc(Cl)cc2C12CCN(CCOc1ccc3[nH]ncc3c1)CC2 [Compound 87, 5-chloro-1′-[2-(2H-indazol-5-yloxy)ethyl]-1,2-dihydrospiro[indole-3,4′-piperidin]-2-one] | 103 | 268 | 383 | 95.8 |  |  |  |  |
| Cn1c(=O)[nH]c2cc(OCCN3CCC4(CC3)C(=O)Nc3ccc(Cl)cc34)ccc21 [Compound 88, 5-chloro-1′-{2-[(1-methyl-2-oxo-2,3-dihydro-1H-1,3-benzodiazol-5-yl)oxy]ethyl}-1,2-dihydrospiro[indole-3,4′-piperidin]-2-one] | 121 | 451 | 561 | 138 |  |  |  |  |
| CS(=O)(=O)c1c(F)cc(OCCN2CCC3(CC2)C(=O)Nc2ccc(Cl)cc23)cc1F [Compound 89, 5-chloro-1′-[2-(3,5-difluoro-4-methanesulfonylphenoxy)ethyl]-1,2-dihydrospiro[indole-3,4′-piperidin]-2-one] | 55.7 | 101 | 114 | 32.7 |  |  |  |  |
| CS(=O)(=O)c1c(F)cc(OCCN2CCC3(CC2)C(=O)Nc2ccc(C#N)cc23)cc1F [Compound 90, 1′-[2-(3,5-difluoro-4-methanesulfonylphenoxy)ethyl]-2-oxo-1,2-dihydrospiro[indole-3,4′-piperidine]-5-carbonitrile] | 151 | 546 | 679 | 163 |  |  |  |  |
| COC(=O)C1(S(=O)(=O)c2ccc(OCCN3CCC4(CC3)C(=O)Nc3ccc(Cl)cc34)cc2)CC1 [Compound 91, methyl 1-[4-(2-{5-chloro-2-oxo-1,2-dihydrospiro[indole-3,4′-piperidin]-1′-yl}ethoxy)benzenesulfonyl]cyclopropane-1-carboxylate] | 24.5 | 54.6 | 82.7 | 20.4 |  |  |  |  |
| CC1(S(=O)(=O)c2ccc(OCCN3CCC4(CC3)C(=O)Nc3ccc(Cl)cc34)cc2)COC1 [Compound 92, 5-chloro-1′-(2-{4-[(3-methyloxetan-3-yl)sulfonyl]phenoxy}ethyl)-1,2-dihydrospiro[indole-3,4′-piperidin]-2-one] | 51.5 | 84.4 | 99.3 | 28.5 |  |  |  |  |
| CC1(S(=O)(=O)c2ccc(OCCN3CCC4(CC3)C(=O)Nc3ccc(C#N)cc34)cc2)COC1 [Compound 93, 1′-(2-{4-[(3-methyloxetan-3-yl)sulfonyl]phenoxy}ethyl)-2-oxo-1,2-dihydrospiro[indole-3,4′-piperidine]-5-carbonitrile] | 90.9 | 156 | 264 | 56.9 |  |  |  |  |
| CS(=O)(=O)N1CCc2cc(OCCN3CCC4(CC3)C(=O)Nc3ccc(Cl)cc34)ccc2C1 [Compound 94, 5-chloro-1′-{2-[(2-methanesulfonyl-1,2,3,4-tetrahydroisoquinolin-6-yl)oxy]ethyl}-1,2-dihydrospiro[indole-3,4′-piperidin]-2-one] | 140 | 403 | 424 | 129 |  |  |  |  |
| CN1C(=O)CCc2cc(OCCN3CCC4(CC3)C(=O)Nc3ccc(C#N)cc34)ccc21 [Compound 95, 1′-{2-[(1-methyl-2-oxo-1,2,3,4-tetrahydroquinolin-6-yl)oxy]ethyl}-2-oxo-1,2-dihydrospiro[indole-3,4′-piperidine]-5-carbonitrile] | 246 | 592 | 703 | 222 |  |  |  |  |
| CC(C)N1C(=O)CCc2cc(OCCN3CCC4(CC3)C(=O)Nc3ccc(C#N)cc34)ccc21 [Compound 96, 2-oxo-1′-(2-{[2-oxo-1-(propan-2-yl)-1,2,3,4-tetrahydroquinolin-6-yl]oxy}ethyl)-1,2-dihydrospiro[indole-3,4′-piperidine]-5-carbonitrile] | 50.5 | 122 | 143 | 53 |  |  |  |  |
| CC(C)N1C(=O)CCc2cc(OCCN3CCC4(CC3)C(=O)Nc3ccc(Cl)cc34)ccc21 [Compound 97, 5-chloro-1′-(2-{[2-oxo-1-(propan-2-yl)-1,2,3,4-tetrahydroquinolin-6-yl]oxy}ethyl)-1,2-dihydrospiro[indole-3,4′-piperidin]-2-one] | 44.6 | 99 | 98.4 | 40.6 |  |  |  |  |
| CS(=O)(=O)N(CCO)c1ccc(OCCN2CCC3(CC2)C(=O)Nc2ccc(Cl)cc23)cc1 [Compound 98, N-[4-(2-{5-chloro-2-oxo-1,2-dihydrospiro[indole-3,4′-piperidin]-1′-yl}ethoxy)phenyl]-N-(2-hydroxyethyl)methanesulfonamide] | 54.4 | 207 | 259 | 72.2 |  |  |  |  |
| O=C1CCc2cc(OCCN3CCC4(CC3)C(=O)Nc3ccc(Cl)cc34)cnc2N1[C@H]1C[C@H](O)C1 [Compound 267, 5-chloro-1′-[2-({7-oxo-8-[(trans)-3-hydroxycyclobutyl]-5,6,7,8-tetrahydro-1,8-naphthyridin-3-yl}oxy)ethyl]-1,2-dihydrospiro[indole-3,4′-piperidin]-2-one] | 37.8 | 95.4 | 115 | 33.7 |  |  |  |  |
| CS(=O)(=O)C1(c2ccc(OCCN3CCC4(CC3)C(=O)Nc3ccc(Cl)cc34)cc2)CC(O)C1 (stereo not drawn) [Compound 269, 5-chloro-1′-(2-{4-[(cis) or (trans)-3-hydroxy-1-methanesulfonylcyclobutyl]phenoxy}ethyl)-1,2-dihydrospiro[indole-3,4′-piperidin]-2-one] |  |  |  |  | 102 | 207 | 277 | 79.7 |
| CS(=O)(=O)C1(c2ccc(OCCN3CCC4(CC3)C(=O)Nc3ccc(Cl)cc34)cc2)CC(O)C1 (stereo not drawn) [Compound 270, 5-chloro-1′-(2-{4-[(trans) or (cis)-3-hydroxy-1-methanesulfonylcyclobutyl]phenoxy}ethyl)-1,2-dihydrospiro[indole-3,4′-piperidin]-2-one] |  |  |  |  | 25.6 | 72.5 | 82.2 | 25.3 |
| C[C@]1(O)C[C@@H](n2c(=O)cnc3cc(OCCN4CCC5(CC4)C(=O)Nc4ccc(Cl)cc45)cnc32)C1 [Compound 358, 5-chloro-1′-[2-({3-oxo-4-[(cis)-3-hydroxy-3-methylcyclobutyl]-3H,4H-pyrido[2,3-b]pyrazin-7-yl}oxy)ethyl]-1,2-dihydrospiro[indole-3,4′-piperidin]-2-one] | 65 | 62.1 | 75.2 | 31.3 |  |  |  |  |
| CC1(O)CN(c2ncc(OCCN3CCC4(CC3)C(=O)Nc3ccc(C(F)F)cc34)cn2)C1 [Compound 395, 5-(difluoromethyl)-1′-(2-{[2-(3-hydroxy-3-methylazetidin-1-yl)pyrimidin-5-yl]oxy}ethyl)-1,2-dihydrospiro[indole-3,4′-piperidin]-2-one] | 86.8 | 240 | 312 | 106 |  |  |  |  |
